Columns and labels:
[1] = target: hMC4R (Homo sapiens (Human), UniProt P32245); assay: Transactivation test: melanocortin receptors (pCRE-Luc luciferase reporter), hMC4R; assay type: cell-based; conditions: HEK293 transfected with pCRE-Luc and hMC4R; products tested alone (agonist), 6 h incubation; % activity vs NDP-MSH 10 nM; IA: inactive
[2] = target: hMC1R (Homo sapiens (Human), UniProt Q01726); assay: Transactivation test: melanocortin receptors (pCRE-Luc luciferase reporter), hMC1R; assay type: cell-based; conditions: HEK293 transfected with pCRE-Luc and hMC1R; products tested alone (agonist), 6 h incubation; % activity vs NDP-MSH 10 nM; IA: inactive
Sequence of hMC1R (Q01726 whole entry): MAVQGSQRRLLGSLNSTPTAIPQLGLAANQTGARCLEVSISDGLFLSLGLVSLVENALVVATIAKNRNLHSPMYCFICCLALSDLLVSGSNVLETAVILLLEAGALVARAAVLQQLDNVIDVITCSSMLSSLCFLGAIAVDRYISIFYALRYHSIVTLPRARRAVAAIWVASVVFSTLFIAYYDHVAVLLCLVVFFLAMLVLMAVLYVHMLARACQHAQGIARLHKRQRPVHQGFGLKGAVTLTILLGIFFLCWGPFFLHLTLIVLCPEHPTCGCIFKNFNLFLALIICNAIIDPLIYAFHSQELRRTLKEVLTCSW
Procedure, shortened: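 HEK293 cells carrying the pCRE-Luc reporter and hMC1R vectors were grown in DMEM with 10% foetal calf serum at 37° C., 5% CO2, then plated at 5000 cells per well in 384-well plates in serum-free DMEM overnight. Products dissolved at 10 mM in DMSO were added alone as 10-point, 4-fold dilutions from 10 μM (0.1% DMSO) and incubated 6 h. Luciferase luminescence was read on Top-Count after lysis with luciferin, normalized to NDP-MSH 10 nM (100%) and cells alone (0%), and EC50 in nM derived with XLFit.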

Sequence of hMC4R (P32245 whole entry): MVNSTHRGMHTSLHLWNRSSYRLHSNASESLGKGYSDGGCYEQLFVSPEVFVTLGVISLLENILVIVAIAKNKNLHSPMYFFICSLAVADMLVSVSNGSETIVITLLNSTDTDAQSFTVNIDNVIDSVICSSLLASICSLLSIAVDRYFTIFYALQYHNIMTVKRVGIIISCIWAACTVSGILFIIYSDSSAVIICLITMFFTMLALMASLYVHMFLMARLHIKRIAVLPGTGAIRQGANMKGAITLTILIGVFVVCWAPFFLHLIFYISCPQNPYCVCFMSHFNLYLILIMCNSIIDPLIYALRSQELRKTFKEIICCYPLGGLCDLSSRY

COc1ccc(C[C@@H](NC(=O)CCc2nc[nH]c2C)C(=O)N2CC(OCC=C(C)C)(c3ccccc3C)C2)cc1 [Compound 80, N-[(R)-1-(4-Methoxybenzyl)-2-[3-(3-methylbut-2-enyloxy)-3-o-tolylazetidin-1-yl]-2-oxoethyl)-3-(5-methyl-1H-imidazol-4-yl)propionamide] showed an EC50 [1] of 4000 nM and an EC50 [2] of 15 nM.
